Assay results reported in ChEMBL document CHEMBL1133521, “Multiple-conformation and protonation-state representation in 4D-QSAR: the neurokinin-1 receptor system” (J Med Chem, 2000).

Molecular target: Substance-P receptor (Homo sapiens, UniProt P25103)
Test: Inhibitory activity against Tachykinin receptor 1

Chain of Substance-P receptor (P25103 whole entry): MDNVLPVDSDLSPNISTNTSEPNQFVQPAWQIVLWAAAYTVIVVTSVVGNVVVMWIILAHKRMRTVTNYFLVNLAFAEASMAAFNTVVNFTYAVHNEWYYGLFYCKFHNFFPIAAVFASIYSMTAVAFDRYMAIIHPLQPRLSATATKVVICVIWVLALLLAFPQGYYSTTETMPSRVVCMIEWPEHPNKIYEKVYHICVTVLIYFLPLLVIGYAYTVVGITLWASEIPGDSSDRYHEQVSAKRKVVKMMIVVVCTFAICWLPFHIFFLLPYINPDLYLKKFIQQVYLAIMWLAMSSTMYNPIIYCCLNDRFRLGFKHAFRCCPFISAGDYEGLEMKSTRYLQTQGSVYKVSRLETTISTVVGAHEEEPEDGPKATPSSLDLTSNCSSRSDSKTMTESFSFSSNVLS

Going from `COc1ccccc1C(CNC(=O)Cc1cc(C)cc(C)c1)N1CCN(C2CCCCC2)CC1` (stereo unspecified) to `COc1ccccc1C(CNC(=O)Cc1cc(C)cc(C)c1)N1CCC(N2CCCCC2)CC1` (stereo unspecified), the IC50 rises from 15 nM to 61 nM (4.1-fold). The first is the more potent here.

First: O=C(Cc1cc(C(F)(F)F)cc(C(F)(F)F)c1)NCC(c1cccc2ccccc12)N1CCN(C2CCCCC2)CC1 (stereo unspecified)
Second: O=C(Cc1cc(C(F)(F)F)cc(C(F)(F)F)c1)NCC(c1cccc2ccccc12)N1CCC(N2CCCCC2)CC1 (stereo unspecified)
The IC50 of the first is 5-fold lower: 2.8 nM for the first, 14 nM for the second.

First: O=C(Cc1cc(C(F)(F)F)cc(C(F)(F)F)c1)NCC(c1ccc(F)c(Cl)c1)N1CCC(N2CCCCC2)CC1 (stereo unspecified)
Second: O=C(Cc1cc(C(F)(F)F)cc(C(F)(F)F)c1)NCC(c1ccc(Cl)c(Cl)c1)N1CCC(N2CCCCC2)CC1 (stereo unspecified)
The IC50 of the first is 3.9-fold higher: 2.9 nM for the first, 0.75 nM for the second. The second is the more potent here.

Compared with `COc1ccc(C(CNC(=O)Cc2cc(C(F)(F)F)cc(C(F)(F)F)c2)N2CCC(N3CCCCC3)CC2)c(OC)c1OC` (stereo unspecified), `COc1cccc(C(CNC(=O)Cc2cc(C(F)(F)F)cc(C(F)(F)F)c2)N2CCC(N3CCCCC3)CC2)c1OC` (stereo unspecified) is 28-fold lower in IC50: 210 nM for the first, 7.6 nM for the second.

`CN(CC(c1ccc(F)cc1Cl)N1CCC(N2CCCCC2)CC1)C(=O)Cc1cc(C(F)(F)F)cc(C(F)(F)F)c1` (stereo unspecified) and `CN(CC(c1ccc(F)c(Cl)c1)N1CCC(N2CCCCC2)CC1)C(=O)Cc1cc(C(F)(F)F)cc(C(F)(F)F)c1` (stereo unspecified) are within 1.5-fold of each other in IC50: 1.5 nM for the first, 1.7 nM for the second.

First: O=C(Cc1cc(C(F)(F)F)cc(C(F)(F)F)c1)NCC(c1ccccc1)N1CCC(N2CCCCC2)CC1 (stereo unspecified)
Second: O=C(Cc1cc(C(F)(F)F)cc(C(F)(F)F)c1)NCC(c1ccccc1Br)N1CCC(N2CCCCC2)CC1 (stereo unspecified)
The IC50 of the first is 6.1-fold higher: 5.4 nM for the first, 0.88 nM for the second. The second is the more potent here.

Going from `CN(CC(c1ccc(Cl)c(Cl)c1)N1CCC(N2CCCCC2)CC1)C(=O)Cc1cc(C(F)(F)F)cc(C(F)(F)F)c1` (stereo unspecified) to `CC(C)C1CCN(C2CCN(C(CN(C)C(=O)Cc3cc(C(F)(F)F)cc(C(F)(F)F)c3)c3ccc(Cl)c(Cl)c3)CC2)CC1` (stereo unspecified), the IC50 rises from 2.3 nM to 15 nM (6.5-fold).

`CN(CC(c1ccc(F)c(F)c1F)N1CCC(N2CCCCC2)CC1)C(=O)Cc1cc(C(F)(F)F)cc(C(F)(F)F)c1` (stereo unspecified) and `Cc1c(F)cccc1C(CN(C)C(=O)Cc1cc(C(F)(F)F)cc(C(F)(F)F)c1)N1CCC(N2CCCCC2)CC1` (stereo unspecified) are within 1.5-fold of each other in IC50: 1.8 nM for the first, 1.4 nM for the second.

First: CC(C)N1CCN(C(CN(C)C(=O)Cc2cc(C(F)(F)F)cc(C(F)(F)F)c2)c2cccc3c2OCO3)CC1 (stereo unspecified)
Second: CC(C)N1CCN(C(CNC(=O)Cc2cc(C(F)(F)F)cc(C(F)(F)F)c2)c2cccc3c2OCO3)CC1 (stereo unspecified)
The IC50 of the first is 4.9-fold lower: 1.4 nM for the first, 6.9 nM for the second.

Going from `O=C(Cc1cc(C(F)(F)F)cc(C(F)(F)F)c1)NCC(c1ccc2c(c1)OCCO2)N1CCC(N2CCCCC2)CC1` (stereo unspecified) to `CN(CC(c1ccc2c(c1)OCCO2)N1CCC(N2CCCCC2)CC1)C(=O)Cc1cc(C(F)(F)F)cc(C(F)(F)F)c1` (stereo unspecified), the IC50 falls from 140 nM to 8.9 nM (16-fold).

Compared with `O=C(Cc1cc(C(F)(F)F)cc(C(F)(F)F)c1)NCC(C(c1ccccc1)c1ccccc1)N1CCC(N2CCCCC2)CC1` (stereo unspecified), `O=C(Cc1cc(C(F)(F)F)cc(C(F)(F)F)c1)NCC(Cc1ccccc1)N1CCC(N2CCCCC2)CC1` (stereo unspecified) is 1.6-fold lower in IC50: 130 nM for the first, 81 nM for the second.

Going from `COc1ccccc1C(CNC(=O)Cc1cc(C(F)(F)F)cc(C(F)(F)F)c1)N1CCC(O)(c2ccccc2)CC1` (stereo unspecified) to `COc1ccccc1C(CNC(=O)Cc1cc(C(F)(F)F)cc(C(F)(F)F)c1)N1CCCCC1` (stereo unspecified), the IC50 rises from 130 nM to 250 nM (1.9-fold).

Going from `COc1ccc(CC(=O)NCC(c2ccccc2OC)N2CCN(C3CCCCC3)CC2)cc1` (stereo unspecified) to `COc1ccccc1C(CNC(=O)Cc1ccc(Cl)cc1)N1CCN(C2CCCCC2)CC1` (stereo unspecified), the IC50 falls from 2200 nM to 850 nM (2.6-fold). The second is the more potent here.

`COc1ccc(C(CN(C)C(=O)Cc2cc(C(F)(F)F)cc(C(F)(F)F)c2)N2CCC(N3CCCCC3)CC2)c(OC)c1OC` (stereo unspecified) and `COc1cccc(C(CN(C)C(=O)Cc2cc(C(F)(F)F)cc(C(F)(F)F)c2)N2CCC(N3CCCCC3)CC2)c1OC` (stereo unspecified) are within 1.5-fold of each other in IC50: 12 nM for the first, 10 nM for the second.

Going from `CN(CC(Cc1ccccc1)N1CCC(N2CCCCC2)CC1)C(=O)Cc1cc(C(F)(F)F)cc(C(F)(F)F)c1` (stereo unspecified) to `CN(CC(c1ccccc1Br)N1CCC(N2CCCCC2)CC1)C(=O)Cc1cc(C(F)(F)F)cc(C(F)(F)F)c1` (stereo unspecified), the IC50 falls from 32 nM to 1.1 nM (29-fold).

`Cc1c(F)cccc1C(CNC(=O)Cc1cc(C(F)(F)F)cc(C(F)(F)F)c1)N1CCC(N2CCCCC2)CC1` (stereo unspecified) and `COc1ccccc1C(CNC(=O)Cc1cc(C(F)(F)F)cc(C(F)(F)F)c1)N1CCC(N2CCCCC2)CC1` (stereo unspecified) are within 1.5-fold of each other in IC50: 3 nM for the first, 2.4 nM for the second.

Going from `O=C(Cc1cc(C(F)(F)F)cc(C(F)(F)F)c1)NCC(c1ccc(F)cc1Cl)N1CCC(N2CCCCC2)CC1` (stereo unspecified) to `O=C(Cc1cc(C(F)(F)F)cc(C(F)(F)F)c1)NCC(c1cccc(F)c1)N1CCC(N2CCCCC2)CC1` (stereo unspecified), the IC50 rises from 1.7 nM to 4.6 nM (2.7-fold).

`CN(CC(c1cccc2c1OCO2)N1CCN(C2CCCCC2)CC1)C(=O)Cc1cc(C(F)(F)F)cc(C(F)(F)F)c1` (stereo unspecified) and `CN(CC(c1cccc2c1OCO2)N1CCC(N2CCCCC2)CC1)C(=O)Cc1cc(C(F)(F)F)cc(C(F)(F)F)c1` (stereo unspecified) are within 1.5-fold of each other in IC50: 1.3 nM for the first, 1.8 nM for the second.

`O=C(Cc1cc(C(F)(F)F)cc(C(F)(F)F)c1)NCC(c1cccc2c1OCO2)N1CCN(C2CCCCC2)CC1` (stereo unspecified) and `O=C(Cc1cc(C(F)(F)F)cc(C(F)(F)F)c1)NCC(c1cccc(C(F)(F)F)c1F)N1CCC(N2CCCCC2)CC1` (stereo unspecified) are within 1.5-fold of each other in IC50: 1.6 nM for the first, 1.7 nM for the second.

First: COc1ccccc1CC(=O)N(C)CC(c1cccc2c1OCO2)N1CCC(N2CCCCC2)CC1 (stereo unspecified)
Second: CN(CC(c1cccc2c1OCO2)N1CCC(N2CCCCC2)CC1)C(=O)Cc1ccccc1Br (stereo unspecified)
The IC50 of the first is 2.7-fold higher: 16 nM for the first, 6 nM for the second. The second is the more potent here.

Going from `COc1ccccc1C(CNC(=O)Cc1ccc(Cl)c(Cl)c1)N1CCN(C2CCCCC2)CC1` (stereo unspecified) to `COc1ccccc1C(CNC(=O)Cc1cccc(OC(C)C)c1)N1CCN(C2CCCCC2)CC1` (stereo unspecified), the IC50 falls from 280 nM to 130 nM (2.2-fold).

Compared with `CN(CC(c1ccc2c(c1)OCO2)N1CCC(N2CCCCC2)CC1)C(=O)Cc1cc(C(F)(F)F)cc(C(F)(F)F)c1` (stereo unspecified), `CN(CC(c1cc(Cl)cc(Cl)c1Cl)N1CCC(N2CCCCC2)CC1)C(=O)Cc1cc(C(F)(F)F)cc(C(F)(F)F)c1` (stereo unspecified) is 1.6-fold lower in IC50: 4.8 nM for the first, 3 nM for the second. The second is the more potent here.

First: COc1ccccc1C(CNC(=O)Cc1ccccc1C(F)(F)F)N1CCN(C2CCCCC2)CC1 (stereo unspecified)
Second: COc1ccccc1C(CNC(=O)Cc1cc(C(F)(F)F)cc(C(F)(F)F)c1)N1CCN(C2Cc3ccccc3C2)CC1 (stereo unspecified)
The IC50 of the first is 38-fold higher: 270 nM for the first, 7.2 nM for the second.

Going from `CC(C)Oc1cccc(CC(=O)NCC(c2ccc(Cl)c(Cl)c2)N2CCC(N3CCCCC3)CC2)c1` (stereo unspecified) to `COc1cccc(C(CNC(=O)Cc2cc(C(F)(F)F)cc(C(F)(F)F)c2)N2CCC(N3CCCCC3)CC2)c1` (stereo unspecified), the IC50 falls from 5 nM to 1.5 nM (3.3-fold). The second is the more potent here.

First: O=C(Cc1cc(C(F)(F)F)cc(C(F)(F)F)c1)NCC(c1cc(Cl)cc(Cl)c1Cl)N1CCC(N2CCCCC2)CC1 (stereo unspecified)
Second: O=C(Cc1cc(C(F)(F)F)cc(C(F)(F)F)c1)NCC(c1ccc(F)c(F)c1)N1CCC(N2CCCCC2)CC1 (stereo unspecified)
The IC50 of the first is 1.9-fold higher: 6.4 nM for the first, 3.3 nM for the second.

First: Cc1cc(C)cc(CC(=O)N(C)CC(c2cccc3c2OCO3)N2CCC(N3CCCCC3)CC2)c1 (stereo unspecified)
Second: CN(CC(c1cccc2c1OCO2)N1CCC(N2CCCCC2)CC1)C(=O)Cc1ccccc1Cl (stereo unspecified)
The IC50 of the first is 4.1-fold lower: 2.9 nM for the first, 12 nM for the second. The first is the more potent here.

Going from `O=C(Cc1cc(C(F)(F)F)cc(C(F)(F)F)c1)NCC(c1ccc(Cl)c(Cl)c1)N1CCC(N(CCO)CCO)CC1` (stereo unspecified) to `COc1ccc(OC)c(C(CNC(=O)Cc2cc(C(F)(F)F)cc(C(F)(F)F)c2)N2CCC(N3CCCCC3)CC2)c1` (stereo unspecified), the IC50 rises from 5.2 nM to 110 nM (21-fold).

Going from `O=C(Cc1cc(C(F)(F)F)cc(C(F)(F)F)c1)N1CCCCC1C(CN1CCC(N2CCCCC2)CC1)c1ccccc1` (stereo unspecified) to `COc1ccccc1C(C1CCCCN1C(=O)Cc1cc(C(F)(F)F)cc(C(F)(F)F)c1)N1CCC(N2CCCCC2)CC1` (stereo unspecified), the IC50 falls from 1500 nM to 4.3 nM (350-fold). The second is the more potent here.

Compared with `COc1cc(C(=O)N(C)CC(c2cccc3c2OCO3)N2CCC(N3CCCCC3)CC2)cc(OC)c1OC` (stereo unspecified), `CN(CC(c1cccc2c1OCO2)N1CCC(N2CCCCC2)CC1)C(=O)C(c1ccccc1)c1ccccc1` (stereo unspecified) is 1.7-fold lower in IC50: 37 nM for the first, 22 nM for the second. The second is the more potent here.

Going from `CN(CC(c1ccccc1)N1CCN(C2CCCCC2)CC1)C(=O)Cc1cc(C(F)(F)F)cc(C(F)(F)F)c1` (stereo unspecified) to `CN(CCc1cc(C(F)(F)F)cc(C(F)(F)F)c1)C(=O)C(Cc1c[nH]c2ccccc12)N1CCN(C2CCCCC2)CC1` (stereo unspecified), the IC50 rises from 2 nM to 12 nM (6-fold). The first is the more potent here.

`CN(CC(c1cccc(C(F)(F)F)c1F)N1CCC(N2CCCCC2)CC1)C(=O)Cc1cc(C(F)(F)F)cc(C(F)(F)F)c1` (stereo unspecified) was tested, and the IC50 was 1.4 nM.
